We go through two compounds from paper PMC6320288 (Neuroscience letters, 2018).

Experiment [1] deals with T1, rat P2X3R (Rattus norvegicus, UniProt P49654).
T1 sequence (P49654 1-397): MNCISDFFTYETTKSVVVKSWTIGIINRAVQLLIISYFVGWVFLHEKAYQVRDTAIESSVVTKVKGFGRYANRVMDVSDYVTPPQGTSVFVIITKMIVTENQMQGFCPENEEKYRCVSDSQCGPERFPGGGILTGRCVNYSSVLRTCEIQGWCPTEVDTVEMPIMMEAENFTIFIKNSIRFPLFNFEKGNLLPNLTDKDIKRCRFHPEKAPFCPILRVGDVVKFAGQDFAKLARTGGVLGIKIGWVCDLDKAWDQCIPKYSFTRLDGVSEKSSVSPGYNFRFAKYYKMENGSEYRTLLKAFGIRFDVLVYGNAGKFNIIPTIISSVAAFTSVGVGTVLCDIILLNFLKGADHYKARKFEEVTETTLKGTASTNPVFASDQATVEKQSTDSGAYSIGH
The experiment in a line: whole-cell patch clamp in transfected HEK293 cells. The experiment is classed as cell-based. Particulars: HEK293, read-out: % inhibition at 10 μM. (In general: Patch clamp records ionic current or voltage across a cell membrane.)

The target in experiment [2] is T2, rat P2X4R (rP2X4R) (Rattus norvegicus, UniProt P51577).
T2 sequence (P51577 1-388): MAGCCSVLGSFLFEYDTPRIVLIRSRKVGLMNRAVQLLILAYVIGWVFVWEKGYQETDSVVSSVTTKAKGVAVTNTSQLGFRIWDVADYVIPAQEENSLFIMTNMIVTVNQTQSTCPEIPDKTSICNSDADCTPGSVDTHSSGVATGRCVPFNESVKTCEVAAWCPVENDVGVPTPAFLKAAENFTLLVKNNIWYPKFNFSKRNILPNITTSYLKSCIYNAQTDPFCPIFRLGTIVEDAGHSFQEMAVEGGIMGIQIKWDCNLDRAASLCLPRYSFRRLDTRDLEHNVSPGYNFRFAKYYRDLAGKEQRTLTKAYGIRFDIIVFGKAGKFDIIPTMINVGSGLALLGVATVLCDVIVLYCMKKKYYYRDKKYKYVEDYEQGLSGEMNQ
The experiment in a line: cell-based.

As usually defined, the inhibition is the percentage by which the read-out fell short of the control. Consider `O=C1CN=C(c2cccc(Br)c2)c2oc3ccccc3c2N1` [5-BDBD, 5-(3-bromophenyl)-1,3-dihydro-2H-benzofuro[3,2-e]-1,4-diazepin-2-one], for which the inhibition at 10 µM in experiment [1] came to 35.9 ± 10.1%. A word on the EC50: it is the concentration at which the effect is half-maximal. Low readings indicate an effect from little substance, high ones a need for much substance. `Nc1ncnc2c1ncn2[C@@H]1O[C@H](COP(=O)(O)OP(=O)(O)OP(=O)(O)O)[C@@H](O)[C@H]1O` [ATP] had an EC50 in experiment [2] of 4.7 ± 1.8 µM.
